The text below walks through data of PubChem BioAssay (NCI).

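Five concentrations, 48 hours, 96-well plates. GI50 marks 50% less growth. The concentration for full growth arrest is given as TGI.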

The first assay has as its system HT29 colon. As to the kind of experiment: NCI anticancer screen, dose series, 48 h.
`N=C(N)c1nn(C2OC(CO)C(O)C2O)c2nc[nH]c(=O)c12` (centres undefined): the GI50 was 2.11 µM and the TGI is 11.7 µM.

For the compound `COc1ccc2c(c1)CCC1C2CCC2(C)C1CCC2(O)CNC(=O)CCCCC1CCSS1` (centres undefined), the GI50 was 2.28 µM and the TGI worked out at 6.81 µM.

Take `CC[C@H](Nc1nc(N)nc(C)c1C#N)c1nc2cccc(CN(C)c3ncc(C(=O)NO)cn3)c2c(=O)n1-c1ccccc1`: the GI50 is 0.8 µM and the TGI was more than 17.6 µM.

For the compound `C=CCC(N[C@H](CO)C(C)C)c1cn(C(=O)OCC)c2ccccc12` (some centres undefined), the GI50 was 36.1 µM and the TGI was more than 100 µM.

Regarding `CC1=CC(=O)c2c(O)cccc2C1=O`, the TGI came out at 3.46 µM.

For the compound `CC1(C)CCC2(C(=O)OC3OC(CO)C(O)C(O)C3O)CC[C@]3(C)C(=CCC4C5(C)CC[C@H](OC6OC(C(=O)O)C(O)C(O)C6O)C(C)(C)C5CCC43C)C2C1` (some centres undefined), the GI50 is 2.07 µM and the TGI is more than 50 µM.

Turning to `COc1cc(Cn2cc3c(c2)-c2oncc2CC3)cc(OC)c1OC`, the GI50 was 0.0339 µM and the TGI is more than 100 µM.

As to `COc1ccc(C(=O)/C=C/c2ccc(Cl)cc2)cc1S(=O)(=O)Nc1c(N)nc(SC)[nH]c1=O`, the GI50 is 2.93 µM and the TGI was 7.93 µM.

Regarding `O=S(=O)(c1ccc(NC(=S)NCc2cccnc2)cc1)N1CCCCC1`, the GI50 is 90.5 µM and the TGI was more than 100 µM.

As to `O=C(O)CSSCC(=O)O`, the TGI is more than 100 µM.

Regarding `CC(C)(C(=O)NN)c1ccccc1`, the TGI is more than 100 µM.

As to `COc1cccc(C2=C(c3cn(C)c4ccccc34)C(=O)NC2=O)c1`, the GI50 is 7.96 µM and the TGI is more than 25 µM.

In the case of `Fc1ccc2[nH]cc(Cc3c[nH]c4ccc(F)cc34)c2c1`, the GI50 is 31.4 µM and the TGI was more than 100 µM.

Take `O=C(CCN1CCCC1)Nc1ccc2c(NCc3ccc(F)cc3)c3ccccc3nc2c1`: the GI50 is 0.377 µM and the TGI was 1.85 µM.

As for `COc1cccc(OC(=O)c2ccccc2Nc2ccnc(C(F)(F)F)c2)c1`, the GI50 was 3.68 µM and the TGI is more than 100 µM.

For `C=C1C(=O)O[C@@H]2C1CC(=O)C(C)CC/C=C(\C)CCC[C@H](C)[C@H]2OC(C)=O` (some centres undefined), the GI50 was 5.28 µM and the TGI is more than 100 µM.

With `CSc1nnc(CCSc2ccnc3c(C(F)(F)F)cccc23)o1`, the GI50 was more than 100 µM and the TGI is more than 100 µM.

Take `Fc1ccc(-c2nc3n(c2-c2ccncc2)CCS3)cc1`: the GI50 was more than 25 µM and the TGI is more than 25 µM.

As to `N#Cc1ncc(/N=C/c2ccc(N(CCCl)CCCl)cc2)s1`, the GI50 was 72.8 µM and the TGI was more than 100 µM.

In the next assay the test system is HOP-92 NSCLC. As to the kind of experiment: NCI anticancer screen, dose series, 48 h.
Consider `N=C(N)c1nn(C2OC(CO)C(O)C2O)c2nc[nH]c(=O)c12` (centres undefined), for which the GI50 is 1.29 µM and the TGI stood at 5.93 µM.

For the compound `COc1ccc2c(c1)CCC1C2CCC2(C)C1CCC2(O)CNC(=O)CCCCC1CCSS1` (centres undefined), the GI50 is 4.9 µM and the TGI came out at 23 µM.

On to `CC[C@H](Nc1nc(N)nc(C)c1C#N)c1nc2cccc(CN(C)c3ncc(C(=O)NO)cn3)c2c(=O)n1-c1ccccc1`, for which the GI50 is 0.204 µM and the TGI stood at 1.52 µM.

As to `C=CCC(N[C@H](CO)C(C)C)c1cn(C(=O)OCC)c2ccccc12` (some centres undefined), the GI50 was 14.1 µM and the TGI stood at 45.6 µM.

In turn, `CC1=CC(=O)c2c(O)cccc2C1=O` gave a TGI of 1.43 µM.

With `CC1(C)CCC2(C(=O)OC3OC(CO)C(O)C(O)C3O)CC[C@]3(C)C(=CCC4C5(C)CC[C@H](OC6OC(C(=O)O)C(O)C(O)C6O)C(C)(C)C5CCC43C)C2C1` (some centres undefined), the GI50 was 1.04 µM and the TGI came to 2.98 µM.

Regarding `COc1cc(Cn2cc3c(c2)-c2oncc2CC3)cc(OC)c1OC`, the GI50 was 31 µM and the TGI was more than 100 µM.

Regarding `COc1ccc(C(=O)/C=C/c2ccc(Cl)cc2)cc1S(=O)(=O)Nc1c(N)nc(SC)[nH]c1=O`, the GI50 was 2.59 µM and the TGI came to 7.99 µM.

Regarding `O=S(=O)(c1ccc(NC(=S)NCc2cccnc2)cc1)N1CCCCC1`, the GI50 was 11.1 µM and the TGI is more than 100 µM.

`O=C(O)CSSCC(=O)O` gave a TGI of more than 100 µM.

Turning to `CC(C)(C(=O)NN)c1ccccc1`, the TGI was more than 100 µM.

As for `COc1cccc(C2=C(c3cn(C)c4ccccc34)C(=O)NC2=O)c1`, the GI50 is more than 25 µM and the TGI is more than 25 µM.

As to `Fc1ccc2[nH]cc(Cc3c[nH]c4ccc(F)cc34)c2c1`, the GI50 was 15.4 µM and the TGI was 34.1 µM.

Turning to `O=C(CCN1CCCC1)Nc1ccc2c(NCc3ccc(F)cc3)c3ccccc3nc2c1`, the GI50 was 0.366 µM and the TGI worked out at 2.07 µM.

Turning to `COc1cccc(OC(=O)c2ccccc2Nc2ccnc(C(F)(F)F)c2)c1`, the GI50 is 5.77 µM and the TGI came to 60.4 µM.

With `C=C1C(=O)O[C@@H]2C1CC(=O)C(C)CC/C=C(\C)CCC[C@H](C)[C@H]2OC(C)=O` (some centres undefined), the GI50 is 1.64 µM and the TGI came out at 9.12 µM.

`CSc1nnc(CCSc2ccnc3c(C(F)(F)F)cccc23)o1`: the GI50 is 18.1 µM and the TGI is more than 100 µM.

For the compound `Fc1ccc(-c2nc3n(c2-c2ccncc2)CCS3)cc1`, the GI50 was more than 25 µM and the TGI was more than 25 µM.

In the case of `N#Cc1ncc(/N=C/c2ccc(N(CCCl)CCCl)cc2)s1`, the GI50 was 24.7 µM and the TGI is 93.3 µM.

A further assay concerns SF-268 CNS. Put plainly: NCI anticancer screen, dose series, 48 h.
`N=C(N)c1nn(C2OC(CO)C(O)C2O)c2nc[nH]c(=O)c12` (centres undefined): the GI50 was 0.445 µM and the TGI came out at 3.04 µM.

On to `COc1ccc2c(c1)CCC1C2CCC2(C)C1CCC2(O)CNC(=O)CCCCC1CCSS1` (centres undefined), for which the GI50 was 15.9 µM and the TGI is more than 100 µM.

In the case of `CC[C@H](Nc1nc(N)nc(C)c1C#N)c1nc2cccc(CN(C)c3ncc(C(=O)NO)cn3)c2c(=O)n1-c1ccccc1`, the GI50 is 1.09 µM and the TGI is 4.19 µM.

As for `C=CCC(N[C@H](CO)C(C)C)c1cn(C(=O)OCC)c2ccccc12` (some centres undefined), the GI50 was 33.4 µM and the TGI was more than 100 µM.

`CC1=CC(=O)c2c(O)cccc2C1=O` came in with a TGI of 3.96 µM.

Regarding `CC1(C)CCC2(C(=O)OC3OC(CO)C(O)C(O)C3O)CC[C@]3(C)C(=CCC4C5(C)CC[C@H](OC6OC(C(=O)O)C(O)C(O)C6O)C(C)(C)C5CCC43C)C2C1` (some centres undefined), the GI50 is 2.17 µM and the TGI is 11.4 µM.

`COc1cc(Cn2cc3c(c2)-c2oncc2CC3)cc(OC)c1OC`: the GI50 is 0.0778 µM and the TGI was more than 55.4 µM.

Consider `COc1ccc(C(=O)/C=C/c2ccc(Cl)cc2)cc1S(=O)(=O)Nc1c(N)nc(SC)[nH]c1=O`, for which the GI50 was 2.69 µM and the TGI stood at 7.32 µM.

As for `O=S(=O)(c1ccc(NC(=S)NCc2cccnc2)cc1)N1CCCCC1`, the GI50 is 17.2 µM and the TGI is more than 100 µM.

`O=C(O)CSSCC(=O)O` returned a TGI of more than 100 µM.

On to `CC(C)(C(=O)NN)c1ccccc1`, for which the TGI was more than 100 µM.

As to `COc1cccc(C2=C(c3cn(C)c4ccccc34)C(=O)NC2=O)c1`, the GI50 was 16.3 µM and the TGI is more than 25 µM.

For the compound `Fc1ccc2[nH]cc(Cc3c[nH]c4ccc(F)cc34)c2c1`, the GI50 was 17.5 µM and the TGI is 77.6 µM.

`O=C(CCN1CCCC1)Nc1ccc2c(NCc3ccc(F)cc3)c3ccccc3nc2c1`: the GI50 is 0.465 µM and the TGI is 1.91 µM.

Regarding `COc1cccc(OC(=O)c2ccccc2Nc2ccnc(C(F)(F)F)c2)c1`, the GI50 is 4.65 µM and the TGI turned out to be 26.7 µM.

Regarding `C=C1C(=O)O[C@@H]2C1CC(=O)C(C)CC/C=C(\C)CCC[C@H](C)[C@H]2OC(C)=O` (some centres undefined), the GI50 was 20.5 µM and the TGI was 41.3 µM.

Regarding `CSc1nnc(CCSc2ccnc3c(C(F)(F)F)cccc23)o1`, the GI50 was 71.5 µM and the TGI was more than 100 µM.

Take `Fc1ccc(-c2nc3n(c2-c2ccncc2)CCS3)cc1`: the GI50 is more than 25 µM and the TGI is more than 25 µM.

For `N#Cc1ncc(/N=C/c2ccc(N(CCCl)CCCl)cc2)s1`, the GI50 is 15.6 µM and the TGI was more than 100 µM.

The next assay concerns SK-MEL-5 melanoma. Put plainly: NCI anticancer screen, dose series, 48 h.
On to `N=C(N)c1nn(C2OC(CO)C(O)C2O)c2nc[nH]c(=O)c12` (centres undefined), for which the GI50 was 0.444 µM and the TGI was determined as 1.53 µM.

For `COc1ccc2c(c1)CCC1C2CCC2(C)C1CCC2(O)CNC(=O)CCCCC1CCSS1` (centres undefined), the GI50 is 7.15 µM and the TGI is more than 100 µM.

Regarding `CC[C@H](Nc1nc(N)nc(C)c1C#N)c1nc2cccc(CN(C)c3ncc(C(=O)NO)cn3)c2c(=O)n1-c1ccccc1`, the GI50 is 0.391 µM and the TGI stood at 1.12 µM.

Turning to `C=CCC(N[C@H](CO)C(C)C)c1cn(C(=O)OCC)c2ccccc12` (some centres undefined), the GI50 was 10.2 µM and the TGI came to 23.7 µM.

For `CC1=CC(=O)c2c(O)cccc2C1=O`, the TGI was 3.05 µM.

As for `CC1(C)CCC2(C(=O)OC3OC(CO)C(O)C(O)C3O)CC[C@]3(C)C(=CCC4C5(C)CC[C@H](OC6OC(C(=O)O)C(O)C(O)C6O)C(C)(C)C5CCC43C)C2C1` (some centres undefined), the GI50 was 0.929 µM and the TGI was 1.78 µM.

Consider `COc1cc(Cn2cc3c(c2)-c2oncc2CC3)cc(OC)c1OC`, for which the GI50 is 0.0366 µM and the TGI worked out at 0.195 µM.

As for `COc1ccc(C(=O)/C=C/c2ccc(Cl)cc2)cc1S(=O)(=O)Nc1c(N)nc(SC)[nH]c1=O`, the GI50 was 2.72 µM and the TGI worked out at 9.59 µM.

As for `O=S(=O)(c1ccc(NC(=S)NCc2cccnc2)cc1)N1CCCCC1`, the GI50 was 12.1 µM and the TGI is 45.8 µM.

The compound `O=C(O)CSSCC(=O)O` gave a TGI of more than 100 µM.

On to `CC(C)(C(=O)NN)c1ccccc1`, for which the TGI is more than 100 µM.

Consider `COc1cccc(C2=C(c3cn(C)c4ccccc34)C(=O)NC2=O)c1`, for which the GI50 is 4.61 µM and the TGI stood at 10.1 µM.

In the case of `Fc1ccc2[nH]cc(Cc3c[nH]c4ccc(F)cc34)c2c1`, the GI50 was 17.5 µM and the TGI worked out at 35.3 µM.

For `O=C(CCN1CCCC1)Nc1ccc2c(NCc3ccc(F)cc3)c3ccccc3nc2c1`, the GI50 is 1.44 µM and the TGI is 2.76 µM.

`COc1cccc(OC(=O)c2ccccc2Nc2ccnc(C(F)(F)F)c2)c1`: the GI50 is 2.23 µM.

As to `C=C1C(=O)O[C@@H]2C1CC(=O)C(C)CC/C=C(\C)CCC[C@H](C)[C@H]2OC(C)=O` (some centres undefined), the GI50 was 11.5 µM and the TGI turned out to be 23.6 µM.

On to `CSc1nnc(CCSc2ccnc3c(C(F)(F)F)cccc23)o1`, for which the GI50 was 46.1 µM and the TGI was more than 100 µM.

Turning to `Fc1ccc(-c2nc3n(c2-c2ccncc2)CCS3)cc1`, the GI50 is more than 18 µM and the TGI is more than 25 µM.

Turning to `N#Cc1ncc(/N=C/c2ccc(N(CCCl)CCCl)cc2)s1`, the GI50 is 27.9 µM and the TGI is more than 100 µM.
